From US8324253B2, “Crystalline modification of 4-(N-methyl-Z-chloro-5pyridy methylamino)-2, 5-dihydrofuran-2-on” (Bayer Cropscience AG, priority 2006, dated 2012)

How the values were obtained:
Nilaparvata lugens = Nilaparvata lugens test (foliar application), outdoor trial rice, Philippines; type: in vivo
Description: Action of the crystalline modification I of the compound of the formula (I) against plant-damaging insects/outdoor trial rice, Philippines
Nilaparvata lugens Test (Foliar Application)
To produce a suitable preparation of active compound, the oil-based suspension concentrate prepared according to Example 2.3 (OD 100 formulation) was diluted with water to the desired concentration. After the desired period of time, the kill in % was determined 100% means that all leafhoppers have been killed; 0% means that none of the leafhoppers have been killed.

[1] = Solid-state properties of the crystalline modifications (stability, moisture uptake, grindability); type: physicochemical

Compound | Kill rate in % after 14 days (Nilaparvata lugens; Active compound concentration 200 g/ha, foliar application of OD 100 formulation of Example 2.3 diluted with water, rice, outdoor trial, 100% = all leafhoppers killed) [%] | activity against Nilaparvata lugens (in words) (Nilaparvata lugens; foliar application, outdoor trial rice) | thermodynamic stability of the crystalline modification [1] | grindability ([1]; compared to other crystalline modifications) | tendency to absorb atmospheric moisture ([1]; compared to the crystalline modification II) | conversion into another crystalline modification on storage ([1]; prolonged storage)
CN(Cc1ccc(Cl)nc1)C1=CC(=O)OC1 [crystalline modification I, 4-{[(6-chloropyrid-3-yl)methyl](methyl)amino}furan-2(5H)-one] | 100 | good activity | thermodynamically stable | easier to comminute/grind | reduced tendency to absorb atmospheric moisture | does not convert into another crystalline modification
CN(Cc1ccc(Cl)nc1)C1=CC(=O)OC1 [crystalline modification II, 4-{[(6-chloropyrid-3-yl)methyl](methyl)amino}furan-2(5H)-one, reference compound] |  |  | metastable |  |  | 
